In the supplement of paper PMC11451515:

Assays:
SEM cells [1] = test: AUC of viability dose-response curve (% viability x log10 dose units); higher = less sensitive; conditions: 48 h
Method in brief: (§1)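 Area under the curve was integrated by trapezoidal rule from a log-logistic fit of normalised viability, with curves exceeding full viability scaled and quality-control failures removed. The fit had four parameters over log10 doses. Viability came from CellTiter-Glo One luminescence, normalised per plate to DMSO and cell-free wells, after leukemia cells adapted to each medium (500 or 1000 cells/well, 1536-well plates) were exposed to library compounds in DMSO for 48 h at 37°C. The 11 threefold doses ran from 47 μM to 0.79 nM.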

NOMO1 [2] = test: as above; conditions: 48 h
Method in brief: as §1

P12-Ichikawa = test: as above; conditions: 48 h
Method in brief: as §1

SEM cells [3] = test: cell viability relative to DMSO control; higher = less cytotoxic; conditions: 48 h
Method in brief: (§2)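 Viability is a per-plate percentage relative to DMSO wells, with cell-free wells as background. CellTiter-Glo One luminescence was read after 48 h at 37°C on 1536-well plates (5 μl) of NOMO1 or SEM (500 cells/well) or P12-Ichikawa (1000 cells/well) leukemia cells. The cells had been adapted for at least four passages in each medium and pin-dosed with library compounds in DMSO from 47 μM to 0.79 nM in 11 threefold steps.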

NOMO1 [4] = test: as above; conditions: RPMI 5 mM glucose + 10% dialyzed FBS, 48 h
Method in brief: as §2

[5] = RPMI 5 mM glucose + 10% dialyzed FBS
[6] = HPLM + 10% dialyzed FBS, 0.000781 µM
[7] = HPLM + 10% dialyzed FBS, 0.00234 µM
[8] = HPLM + 10% dialyzed FBS, 0.00702 µM
[9] = HPLM + 10% dialyzed FBS, 0.0211 µM
[10] = HPLM + 10% dialyzed FBS, 0.0632 µM
[11] = HPLM + 10% dialyzed FBS, 0.19 µM
[12] = HPLM + 10% dialyzed FBS, 0.569 µM
[13] = HPLM + 10% dialyzed FBS, 1.71 µM
[14] = HPLM + 10% dialyzed FBS, 5.12 µM
[15] = HPLM + 10% dialyzed FBS, 15.4 µM
[16] = HPLM + 10% dialyzed FBS, 46.1 µM
[17] = RPMI 5 mM glucose + 10% FBS, 0.000781 µM
[18] = RPMI 5 mM glucose + 10% FBS, 0.00234 µM
[19] = RPMI 5 mM glucose + 10% FBS, 0.00702 µM
[20] = RPMI 5 mM glucose + 10% FBS, 0.0211 µM
[21] = RPMI 5 mM glucose + 10% FBS, 0.0632 µM
[22] = RPMI 5 mM glucose + 10% FBS, 0.19 µM
[23] = RPMI 5 mM glucose + 10% FBS, 0.569 µM
[24] = RPMI 5 mM glucose + 10% FBS, 1.71 µM
[25] = RPMI 5 mM glucose + 10% FBS, 5.12 µM
[26] = RPMI 5 mM glucose + 10% FBS, 15.4 µM
[27] = RPMI 5 mM glucose + 10% FBS, 46.1 µM

SMILES	AUC of viability dose-response curve (SEM cells [1]; HPLM + 10% dialyzed FBS)	AUC of viability dose-response curve (SEM cells [1]; RPMI 5 mM glucose + 10% FBS)	AUC of viability dose-response curve (SEM cells [1]; [5])	AUC of viability dose-response curve (NOMO1 [2]; HPLM + 10% dialyzed FBS)	AUC of viability dose-response curve (NOMO1 [2]; RPMI 5 mM glucose + 10% FBS)	AUC of viability dose-response curve (NOMO1 [2]; [5])	AUC of viability dose-response curve (P12-Ichikawa; HPLM + 10% dialyzed FBS)	AUC of viability dose-response curve (P12-Ichikawa; RPMI 5 mM glucose + 10% FBS)	AUC of viability dose-response curve (P12-Ichikawa; [5])	cell viability (SEM cells [3]; [6])	cell viability (SEM cells [3]; [7])	cell viability (SEM cells [3]; [8])	cell viability (SEM cells [3]; [9])	cell viability (SEM cells [3]; [10])	cell viability (SEM cells [3]; [11])	cell viability (SEM cells [3]; [12])	cell viability (SEM cells [3]; [13])	cell viability (SEM cells [3]; [14])	cell viability (SEM cells [3]; [15])	cell viability (SEM cells [3]; [16])	also measured
CC(=O)N[C@H]1[C@H](O[C@@H]2c3ccc(c(Cl)c3)Oc3cc4cc(c3O[C@@H]3O[C@H](CO)[C@@H](O)[C@H](O)[C@H]3NC(=O)CCCCCCCC(C)C)Oc3ccc(cc3Cl)C[C@H]3NC(=O)[C@H](N)c5ccc(O)c(c5)Oc5cc(O)cc(c5)[C@H](NC3=O)C(=O)N[C@H]4C(=O)N[C@H]3C(=O)N[C@@H]2C(=O)N[C@@H](C(=O)O)c2cc(O)cc(O[C@H]4O[C@H](CO)[C@@H](O)[C@H](O)[C@@H]4O)c2-c2cc3ccc2O)O[C@H](CO)[C@@H](O)[C@@H]1O	456	464	471	469	470	448	463	466	468	96.3%	106%	106%	123%	127%	121%	127%	140%	117%	98.6%	126%	cell viability (NOMO1 [4]; 0.000781 µM): 123%; cell viability (NOMO1 [4]; 0.00234 µM): 131%; cell viability (NOMO1 [4]; 0.00702 µM): 123%; cell viability (NOMO1 [4]; 0.0211 µM): 144%; cell viability (NOMO1 [4]; 0.0632 µM): 146%; cell viability (NOMO1 [4]; 0.19 µM): 151%; cell viability (NOMO1 [4]; 0.569 µM): 149%; cell viability (NOMO1 [4]; 1.71 µM): 162%; cell viability (NOMO1 [4]; 5.12 µM): 157%; cell viability (NOMO1 [4]; 15.4 µM): 157%; cell viability (NOMO1 [4]; 46.1 µM): 151%
CC(C)(Oc1ccc(C2CC2(Cl)Cl)cc1)C(=O)O (stereo not drawn)	444	464	456	457	454	453	453	447	453	125%	131%	123%	125%	127%	128%	120%	122%	95.3%	110%	63.6%	cell viability (SEM cells [3]; [17]): 117%; cell viability (SEM cells [3]; [18]): 109%; cell viability (SEM cells [3]; [19]): 101%; cell viability (SEM cells [3]; [20]): 111%; cell viability (SEM cells [3]; [21]): 101%; cell viability (SEM cells [3]; [22]): 110%; cell viability (SEM cells [3]; [23]): 91.9%; cell viability (SEM cells [3]; [24]): 119%; cell viability (SEM cells [3]; [25]): 79.9%; cell viability (SEM cells [3]; [26]): 106%; cell viability (SEM cells [3]; [27]): 49%
NC/1=N/[C@]2(COC[C@H]2CS1)C3=CC(=CC=C3F)NC(=O)C4=NC=C(F)C=C4	461	417	471	324	302	313	350	348	374	90.8%	111%	131%	127%	132%	140%	130%	135%	136%	147%	110%	cell viability (SEM cells [3]; [17]): 119%; cell viability (SEM cells [3]; [18]): 120%; cell viability (SEM cells [3]; [19]): 129%; cell viability (SEM cells [3]; [20]): 135%; cell viability (SEM cells [3]; [21]): 138%; cell viability (SEM cells [3]; [22]): 149%; cell viability (SEM cells [3]; [23]): 127%; cell viability (SEM cells [3]; [24]): 141%; cell viability (SEM cells [3]; [25]): 155%; cell viability (SEM cells [3]; [26]): 29%; cell viability (SEM cells [3]; [27]): 7.7%
CC(=O)O[C@H]1C[C@@H]2CC[C@@H]3[C@H](CC[C@@]4(C)[C@H]3C[C@H]([N+]3(C)CCCCC3)[C@@H]4OC(C)=O)[C@@]2(C)C[C@@H]1N1CCCCC1	470	465	466	454	438	467	464	466	469	124%	124%	138%	123%	146%	144%	120%	137%	132%	125%	110%	
